Measured values as given in patent US20150190369A1, “QUERCETIN-3-GLUCOSIDE AND USES THEREOF” (priority 2012, published 2015).

How the values were obtained:
[1] = system: PCSK9 gene; conditions: cited from earlier work
[2] = system: hepatocyte nuclear factor 1α (HNF-1α); conditions: cited from earlier work
[3] = system: LDLR; experiment: Semi-quantitative immunoblotting for LDLR protein in Huh7 cell lysates; assay type: cell-based, human; conditions: Huh7, at the concentrations of Q3G discussed
Protocol: At passage, Huh7 cells were routinely seeded at sub-confluence (˜10^6 cells/10-cm dish) in Dulbecco's modified Eagle's medium (DMEM) containing 10% fetal bovine serum (FBS) or LPDS (for experiments) and 50 μg/ml gentamycin. They were incubated overnight at 37° C., in a humidified 5% CO2-95% air atmosphere. Cells were treated or not with Q3G at defined concentrations and for defined lengths of time. Media were collected and centrifuged at 200 g for 5 min to sediment suspended cells; supernatants were collected and supplemented with 0.33 volumes of a 3×-concentrated PIC. Cell monolayers were rinsed with ice-cold phosphate-buffered saline (PBS); they were overlaid with […] the RIPA lysis buffer (50 mM Tris-HCl, pH 8, 150 mM NaCl, 1% NP-40, 0.5% Na-deoxycholate and 0.1% SDS) supplemented with 1× PIC. After 20 min in an ice bath, the lysates were centrifuged at 14,000 g and 4° C. for 20 min, and supernatants were collected. Conditioned media and lysates were stored at −20° C. until analysis.
Cell lysates were fractionated by SDS-PAGE and electrophoretically transferred onto a polyvinylidene fluoride membrane. The membrane was incubated with a goat antihuman LDLR, rabbit anti-PCSK9, or rabbit anti-SREBP-2 polyclonal antibody at 1:1000, 1:1500, and 1:200 dilutions, respectively, and then with a HRP-conjugated heterospecific secondary antibody against the primary Igs at a 1:2000 dilution. It was probed for HRP reaction using the Western Lightning Chemiluminescence Reagent Plus a chemiluminescence-based revelation kit. The signal was captured on X-ray film and immunoreactive bands analyzed by densitometry on a Syngene's ChemiGenius^2XE Bio Imaging System (Cambridge, Mass.) within the dynamic range of the instrument. The membrane was stripped and reprobed with the anti-β-actin monoclonal primary antibody at 1:20,000 dilution and HRP-conjugated rabbit anti-mouse IgG secondary antibody at a 1:5000 dilution. The densitometric values of β-actin bands were using for normalization of experimental samples.
Huh7 cells, hepatocyte derived cellular carcinoma cells, were incubated for 24 h in medium containing 10% lipoprotein-depleted serum (LPDS) and 0 to 10 μM Q3G. The level of LDLR mRNA was measured by quantitative real-time RT-PCR; that of the LDLR protein by semi-quantitative immunoblotting. Exposure to Q3G increased the intracellular content of LDLR mRNA in a concentration-dependent manner; the increase reached a 2× maximum at 2 μM (P<0.01, relative to no Q3G) (FIG. 3A). The content of the corresponding protein followed a similar pattern, but reached a 4× maximum at 4 μM (P<0.005) (FIG. 3B).
The kinetics of cellular accumulation of LDLR and PCSK9 at 2 μM Q3G was also examined: PCSK9 accumulation in the cells began after a 3-h lag; that of LDLR after 6-h lag (FIG. 6).
Statins induce expression of LDLR and PCSK9. […] We examined whether, at a 5 μM concentration of Q3G, simvastatin at 0.2 and 1 μM could further up regulate LDLR expression in Huh7 cells; and, inversely, whether the flavonol can reduce statin-stimulated PCSK9 secretion secreted by Huh7 cells.

[4] = system: PCSK9; experiment: ELISA for secreted PCSK9 in conditioned media of Huh7 cells; assay type: cell-based, human; conditions: Huh7, at the concentrations used for Q3G
Protocol: Media were collected and PCSK9 levels therein were determined by ELISA.
At passage, Huh7 cells were routinely seeded at sub-confluence (˜10^6 cells/10-cm dish) in Dulbecco's modified Eagle's medium (DMEM) containing 10% fetal bovine serum (FBS) or LPDS (for experiments) and 50 μg/ml gentamycin. They were incubated overnight at 37° C., in a humidified 5% CO2-95% air atmosphere. Cells were treated or not with Q3G at defined concentrations and for defined lengths of time. Media were collected and centrifuged at 200 g for 5 min to sediment suspended cells; supernatants were collected and supplemented with 0.33 volumes of a 3×-concentrated PIC. Cell monolayers were rinsed with ice-cold phosphate-buffered saline (PBS); they were overlaid with 0.5 of the RIPA lysis buffer (50 mM Tris-HCl, pH 8, 150 mM NaCl, 1% NP-40, 0.5% Na-deoxycholate and 0.1% SDS) supplemented with 1× PIC. After 20 min in an ice bath, the lysates were centrifuged at 14,000 g and 4° C. for 20 min, and supernatants were collected. Conditioned media and lysates were stored at −20° C. until analysis.
The assays for PCSK9 and insulin were conducted as prescribed by kit manufacturers, using a Thermo Scientific plate reader. For example, PCSK9 levels in conditioned media were measured using the human PCSK9 ELISA kit from Circulex, as specified the manufacturer. The assay was a sandwich immunoassay using two antibodies (A and B) recognizing different PCSK9 epitopes. Briefly, aliquot of diluted media were overlaid on wells coated with anti-PCSK9 antibody A. After 1-h incubation, the wells were washed, overlaid with a solution of HRP-conjugated anti-PCSK9 antibody B, and incubated for 1 h. They were washed again, and overlaid with a solution of tetra-methylbenzidine as a chromogenic substrate for HRP. After 15 min, the reaction was stopped with ammonium sulfate and the absorbance of the reaction mixtures measured by spectrophotometry at 450 nm. All the steps were performed at room temperature. Standards consisted of recombinant human PCSK9.

[5] = system: Apo B; conditions: Caco-2 cells, 5-30 μM; cited from earlier work
[6] = system: LDLR; conditions: HepG2 hepatocytes, 75 μM; cited from earlier work

| SMILES | PCSK9 gene transcription [1] | expression of HNF-1α [2] | increase in LDLR level [3] | effect on PCSK9 secretion [4] | effect on PCSK9 secretion ([4]; listed as aglycone form of quercetin) | Apo B secretion [5] | LDLR expression [6] |
| --- | --- | --- | --- | --- | --- | --- | --- |
| COc1ccc2cc3[n+](cc2c1OC)CCc1cc2c(cc1-3)OCO2 [Berberine] | reduces | decreased expression | – | – | – | – | – |
| O=c1c(O)c(-c2ccc(O)c(O)c2)oc2cc(O)cc(O)c12 [quercetin aglycone, quercetin] | – | – | not observed | not observed | failed to affect PCSK9 secretion | inhibit | up-regulation |
